Experimental data reported in ChEMBL document CHEMBL4706484, “Apigenin-rivastigmine hybrids as multi-target-directed liagnds for the treatment of Alzheimer's disease” (Eur J Med Chem, 2020).
The source made the active and inactive calls. No cut-off for these calls is given here.

Columns and labels:
[1] = Antioxidant activity of compound assessed as trolox equivalent antioxidant capacity by ORAC-FL assay; format: functional
Butyrylcholinesterase = Butyrylcholinesterase (Rattus norvegicus, UniProt Q9JKC1); test: Inhibition of rat serum BChE using acetylthiocholine iodide as substrate measured after 15 mins by Ellman's method; format: cell-free
Cholinesterase = Cholinesterase (Homo sapiens, UniProt P06276); test: Inhibition of human serum BChE using acetylthiocholine iodide as substrate measured after 15 mins by Ellman's method; format: cell-free
Acetylcholinesterase = Acetylcholinesterase (Homo sapiens, UniProt P22303); test: Pseudo-irreversible inhibition of human erythrocytes AChE assessed as enzyme recovery activity at 0.1 times IC50 measured at 120 mins using diluted compound relative to control; format: tissue-based; set-up: scale not given: the % may be the effect or the level left; conditions: Erythrocyte
[2] = biological target: Amyloid-beta precursor protein (Homo sapiens) (UniProt P05067); test: Inhibition of self-induced amyloid beta (1 to 42) (unknown origin) aggregation at 25 uM by ThT fluorescence assay relative to control
[3] = Inhibition of copper-induced amyloid beta (1 to 42) (unknown origin) aggregation at 25 uM by ThT fluorescence assay relative to control
[4] = Disaggregation of Copper-induced amyloid beta (1 to 42) (unknown origin) preformed fibrils at 25 uM by ThT fluorescence assay relative to control
PC-12 [5] = test: Neuroprotective activity against H2O2-induced cell injury in rat PC-12 cells assessed as cell viability at 5 uM preincubated for 2 hrs followed by H2O2 addition and measured after 24 hrs by MTT assay (reference value: 53.8 %); format: functional; conditions: time 26 hrs, read-out: Activity
PC-12 [6] = test: Neuroprotective activity against H2O2-induced cell injury in rat PC-12 cells assessed as cell viability at 10 uM preincubated for 2 hrs followed by H2O2 addition and measured after 24 hrs by MTT assay (reference value: 53.8 %); format: functional; conditions: time 26 hrs, read-out: Activity
SH-SY5Y = test: Neuroprotective activity against amyloid beta (1 to 42 residues)-induced cell injury in human SH-SY5Y cells assessed as cell viability at 5 uM preincubated for 2 hrs followed by H2O2 addition and measured after 24 hrs by MTT assay (reference value: 52.3 %); format: functional; conditions: time 26 hrs, read-out: Activity
[7] = Metal chelating activity assessed as Fe2+-compound complex formation at 37.5 uM in presence of 37.5 uM FeSO4 by UV-Vis spectrophotometric analysis
[8] = Metal chelating activity assessed as compound-Cu2+ complex stoichiometry ratio of 1:1 at 37.5 uM in presence of CuCl2 by UV-visible spectrophotometric analysis
[9] = Inhibition of copper-induced amyloid beta (1 to 42) (unknown origin) aggregation measured after 24 hrs by TEM analysis
[10] = Cytotoxicity against human L02 cells assessed as cell viability at 12.5 uM measured after 72 hrs by MTT assay relative to control; format: cell-based; conditions: read-out: Activity
[11] = Acute toxicity in 2 dpf zebrafish assessed as death at 1.25 to 20 ug/ml measured after 3 days; set-up: species or system Danio rerio; conditions: in vivo, 72 h, dose 1.25-20 µg/ml, time 3 day
[12] = Acute toxicity in 2 dpf zebrafish assessed as pericardial edema at 1.39 to 12.5 ug/ml measured after 3 days; set-up: species or system Danio rerio; conditions: in vivo, 72 h, dose 1.39-12.5 µg/ml, time 3 day
[13] = Acute toxicity in 2 dpf zebrafish assessed as slow blood flow at 1.39 to 12.5 ug/ml measured after 3 days; format: tissue-based, Danio rerio; conditions: 72 h, dose 1.39-12.5 µg/ml, time 3 day
[14] = Acute toxicity in 2 dpf zebrafish assessed as small or misshapen brain at 1.39 to 12.5 ug/ml measured after 3 days; format: tissue-based, Danio rerio; conditions: in vivo, 72 h, dose 1.39-12.5 µg/ml, time 3 day
[15] = Acute toxicity in 2 dpf zebrafish assessed as abnormal tail at 1.39 to 12.5 ug/ml measured after 3 days; set-up: species or system Danio rerio; conditions: in vivo, 72 h, dose 1.39-12.5 µg/ml, time 3 day
[16] = Acute toxicity in 2 dpf zebrafish assessed as abnormal notochord at 1.39 to 12.5 ug/ml measured after 3 days; set-up: species or system Danio rerio; conditions: in vivo, 72 h, dose 1.39-12.5 µg/ml, time 3 day
[17] = Acute toxicity in 2 dpf zebrafish assessed as degenerating trunk muscle within somite at 1.39 to 12.5 ug/ml measured after 3 days; format: tissue-based, Danio rerio; conditions: in vivo, 72 h, dose 1.39-12.5 µg/ml, time 3 day
[18] = Acute toxicity in 2 dpf zebrafish assessed as body shape at 1.39 to 12.5 ug/ml measured after 3 days; set-up: species or system Danio rerio; conditions: in vivo, 72 h, dose 1.39-12.5 µg/ml, time 3 day
[19] = Acute toxicity in 2 dpf zebrafish assessed as death at 1.39 to 12.5 ug/ml measured after 3 days; set-up: species or system Danio rerio; conditions: in vivo, 72 h, dose 1.39-12.5 µg/ml, time 3 day
[20] = Acute toxicity in 2 dpf zebrafish assessed as effect on liver at 1.39 to 12.5 ug/ml measured after 3 days; set-up: species or system Danio rerio; conditions: in vivo, 72 h, dose 1.39-12.5 µg/ml, time 3 day
Danio rerio [21] = organism: Danio rerio; test: Antialzheimer activity against 3 dpf zebrafish model of AlCl3-induced AD assessed as change in motility distance at 1.4 ug/ml (reference value: 5204 mm); format: functional; conditions: dose 1.4 µg/ml
Danio rerio [22] = organism: Danio rerio; test: Antialzheimer activity against 3 dpf zebrafish model of AlCl3-induced AD assessed as increase in motility distance; format: functional, organism-based
Danio rerio [23] = organism: Danio rerio; test: Antialzheimer activity against 3 dpf zebrafish model of AlCl3-induced AD assessed as efficacy on motility distance at 4.2 ug/ml relative to control; format: functional; conditions: dose 4.2 µg/ml
Danio rerio [24] = organism: Danio rerio; test: Antialzheimer activity against 3 dpf zebrafish model of AlCl3-induced AD assessed as efficacy on motility distance at 12.5 ug/ml relative to control; format: functional; conditions: dose 12.5 µg/ml
Danio rerio [25] = organism: Danio rerio; test: Antialzheimer activity against 3 dpf zebrafish model of AlCl3-induced AD assessed as motility by measuring efficacy on speed change at 1.4 ug/ml relative to control; format: functional; conditions: dose 1.4 µg/ml
Danio rerio [26] = organism: Danio rerio; test: Protection against amyloid beta (1 to 40 residues)-induced vascular injury in transgenic zebrafish assessed as vascular injury rate at 12.5 ug/ml (reference value: 73.3 %); format: functional; conditions: dose 12.5 µg/ml
Danio rerio [27] = organism: Danio rerio; test: Protection against amyloid beta (1 to 40 residues)-induced vascular injury in transgenic zebrafish assessed as efficacy on motility at 4.2 ug/ml relative to control; format: functional; conditions: dose 4.2 µg/ml
[28] = Acute toxicity in Kunming mouse at 1000 mg/kg; format: organism-based; conditions: in vivo
[29] = Acute toxicity in Kunming mouse assessed as dispirited at 2000 mg/kg; format: organism-based; conditions: in vivo
Mus musculus [30] = test: Reversal of scopolamine-induced Kunming mouse model of memory impairment assessed as spontaneous alteration at 10 mg/kg by Y-maze test (reference value: 41.6 %); format: functional
Mus musculus [31] = test: Reversal of scopolamine-induced Kunming mouse model of memory impairment assessed as spontaneous alteration at 5 mg/kg by Y-maze test; format: functional, organism-based
Mus musculus [32] = test: Antialzheimer activity in scopolamine-induced Kunming mouse model of memory impairment assessed as Q30 bases ratio (QC data) in brain hippocampus at 10 mg/kg by illumina sequencing method (reference value: 96.67 %); format: functional
Mus musculus [33] = test: Antialzheimer activity in scopolamine-induced Kunming mouse model of memory impairment assessed as GC bases ratio (QC data) in brain hippocampus at 10 mg/kg by illumina sequencing method (reference value: 53.64 %); format: functional
Mus musculus [34] = test: Antialzheimer activity in scopolamine-induced Kunming mouse model of memory impairment assessed as total reads in brain hippocampus at 10 mg/kg by illumina sequencing method (reference value: 100 %); format: functional
[35] = Drug metabolism in rat intestine assessed as metabolite formation by UPLC-MS/MS analysis; format: ADME, tissue-based

Sequence of Acetylcholinesterase (P22303 whole entry): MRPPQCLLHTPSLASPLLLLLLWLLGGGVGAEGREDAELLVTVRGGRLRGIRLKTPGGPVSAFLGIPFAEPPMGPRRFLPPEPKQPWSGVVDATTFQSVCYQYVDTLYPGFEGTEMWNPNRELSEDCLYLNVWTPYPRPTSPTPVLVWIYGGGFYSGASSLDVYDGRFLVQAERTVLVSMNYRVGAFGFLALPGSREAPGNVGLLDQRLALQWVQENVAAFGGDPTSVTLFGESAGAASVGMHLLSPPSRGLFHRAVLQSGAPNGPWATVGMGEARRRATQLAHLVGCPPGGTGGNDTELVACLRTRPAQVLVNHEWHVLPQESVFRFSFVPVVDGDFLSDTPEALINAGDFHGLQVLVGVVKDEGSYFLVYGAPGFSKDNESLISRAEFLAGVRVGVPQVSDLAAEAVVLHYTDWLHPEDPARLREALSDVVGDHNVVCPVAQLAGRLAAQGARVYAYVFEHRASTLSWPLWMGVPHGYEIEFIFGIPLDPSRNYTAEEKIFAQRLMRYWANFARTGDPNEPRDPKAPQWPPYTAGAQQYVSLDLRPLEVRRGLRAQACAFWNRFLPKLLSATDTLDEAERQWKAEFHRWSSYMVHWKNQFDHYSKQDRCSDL
Sequence of Butyrylcholinesterase (Q9JKC1 whole entry): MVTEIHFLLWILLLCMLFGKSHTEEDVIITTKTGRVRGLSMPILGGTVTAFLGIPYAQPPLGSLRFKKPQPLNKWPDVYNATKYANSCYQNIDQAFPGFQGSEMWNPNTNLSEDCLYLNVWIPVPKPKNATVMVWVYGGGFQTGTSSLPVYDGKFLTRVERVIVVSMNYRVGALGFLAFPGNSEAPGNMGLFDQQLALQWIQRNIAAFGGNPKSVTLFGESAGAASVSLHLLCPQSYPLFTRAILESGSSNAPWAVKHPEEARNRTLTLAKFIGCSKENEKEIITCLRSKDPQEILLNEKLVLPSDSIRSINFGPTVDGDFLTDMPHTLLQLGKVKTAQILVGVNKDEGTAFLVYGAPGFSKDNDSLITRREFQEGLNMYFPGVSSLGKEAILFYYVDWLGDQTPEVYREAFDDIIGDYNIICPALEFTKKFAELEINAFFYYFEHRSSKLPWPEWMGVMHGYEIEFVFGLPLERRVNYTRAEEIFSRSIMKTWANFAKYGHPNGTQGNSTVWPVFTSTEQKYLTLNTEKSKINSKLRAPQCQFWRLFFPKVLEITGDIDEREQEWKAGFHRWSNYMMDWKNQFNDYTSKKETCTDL
Sequence of Amyloid-beta precursor protein (Homo sapiens) (P05067 whole entry): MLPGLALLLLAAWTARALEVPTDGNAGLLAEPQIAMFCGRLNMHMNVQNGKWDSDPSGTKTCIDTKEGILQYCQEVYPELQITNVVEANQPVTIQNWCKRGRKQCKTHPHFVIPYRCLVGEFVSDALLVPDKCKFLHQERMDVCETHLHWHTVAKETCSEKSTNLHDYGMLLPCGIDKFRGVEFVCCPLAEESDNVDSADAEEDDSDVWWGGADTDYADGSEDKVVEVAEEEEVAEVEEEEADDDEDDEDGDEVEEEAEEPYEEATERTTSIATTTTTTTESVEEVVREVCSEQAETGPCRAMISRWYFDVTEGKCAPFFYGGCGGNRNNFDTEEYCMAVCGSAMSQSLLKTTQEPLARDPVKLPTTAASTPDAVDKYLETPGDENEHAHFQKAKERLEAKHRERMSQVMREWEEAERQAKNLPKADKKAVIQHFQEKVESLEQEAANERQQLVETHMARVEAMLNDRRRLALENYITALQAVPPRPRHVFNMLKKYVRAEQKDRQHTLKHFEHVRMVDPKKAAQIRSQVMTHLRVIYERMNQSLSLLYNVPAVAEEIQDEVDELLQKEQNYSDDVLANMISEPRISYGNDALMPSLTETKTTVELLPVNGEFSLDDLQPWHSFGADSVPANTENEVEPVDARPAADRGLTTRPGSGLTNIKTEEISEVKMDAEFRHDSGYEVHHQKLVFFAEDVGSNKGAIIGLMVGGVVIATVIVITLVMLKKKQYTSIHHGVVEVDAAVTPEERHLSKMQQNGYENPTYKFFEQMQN
Sequence of Cholinesterase (P06276 whole entry): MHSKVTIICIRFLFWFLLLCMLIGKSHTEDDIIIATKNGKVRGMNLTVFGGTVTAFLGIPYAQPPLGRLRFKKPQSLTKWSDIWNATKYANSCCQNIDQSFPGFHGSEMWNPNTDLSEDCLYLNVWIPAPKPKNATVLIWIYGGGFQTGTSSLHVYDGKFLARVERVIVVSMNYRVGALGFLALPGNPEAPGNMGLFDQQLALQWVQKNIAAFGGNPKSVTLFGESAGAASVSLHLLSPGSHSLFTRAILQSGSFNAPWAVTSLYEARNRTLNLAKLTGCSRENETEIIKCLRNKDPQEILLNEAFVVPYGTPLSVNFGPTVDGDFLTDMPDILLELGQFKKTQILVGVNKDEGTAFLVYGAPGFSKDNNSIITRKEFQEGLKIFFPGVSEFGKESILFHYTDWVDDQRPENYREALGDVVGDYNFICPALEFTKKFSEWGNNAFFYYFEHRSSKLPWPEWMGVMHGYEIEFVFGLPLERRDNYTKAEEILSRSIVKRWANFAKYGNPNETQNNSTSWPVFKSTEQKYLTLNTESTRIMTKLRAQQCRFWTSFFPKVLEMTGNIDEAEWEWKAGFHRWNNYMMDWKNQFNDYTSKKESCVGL

Structure (SMILES): CCN(C)C(=O)Oc1ccc(-c2cc(=O)c3c(O)cc(OC(=O)N(C)CC)cc3o2)cc1
- Activity [1]: 1.3 equiv
- IC50 (Butyrylcholinesterase): 12.1 µM
- IC50 (Cholinesterase): 16.1 µM
- Activity (Acetylcholinesterase): 83.6%
- inhibition [2]: 77.9%
- inhibition [3]: 78.9%
- Activity [4]: 64.6%
- viability at 5 µM (PC-12 [5]): 68.6%
- viability at 10 µM (PC-12 [6]): 76.7%
- viability at 5 µM (SH-SY5Y): 63.9%
- Activity [7]: inactive
- Activity [8]: Active
- inhibition [9]: Active
- viability at 72 h, 12.5 µM [10]: 95.6%
- Activity [11]: Non-Toxic
- Activity [12]: Non-Toxic
- Activity [13]: Non-Toxic
- Activity [14]: Non-Toxic
- Activity [15]: Non-Toxic
- Activity [16]: Non-Toxic
- Activity [17]: Non-Toxic
- Activity [18]: Non-Toxic
- Activity [19]: Non-Toxic
- Activity [20]: Non-Toxic
- Activity (Danio rerio [21]): 6432 mm
- Activity (Danio rerio [22]): Dose-dependent effect
- Efficacy (Danio rerio [23]): 65%
- Efficacy (Danio rerio [24]): 73%
- Efficacy (Danio rerio [25]): 58%
- Activity (Danio rerio [26]): 27%
- Efficacy (Danio rerio [27]): 27%
- Activity [28]: Non-Toxic
- Activity [29]: Toxic
- Activity (Mus musculus [30]): 63.4%
- Activity (Mus musculus [31]): inactive
- Activity (Mus musculus [32]): 96.43%
- Activity (Mus musculus [33]): 60.72%
- Activity (Mus musculus [34]): 100%
- Drug metabolism [35]: Metabolite_Detected
